Laboratory results as given in PMC9034499, “RORγt agonist enhances anti-PD-1 therapy by promoting monocyte-derived dendritic cells through CXCL10 in cancers” (Journal of Experimental & Clinical Cancer Research : CR, 2022).
pEC50: −log10 of the molar value. Like-named read-outs stand apart in the source and are kept apart here.

Experiments:
[1] = tested on: mouse Th17 cells; assay: IL-17A secretion by Th17 cells (ELISA); type: cell-based; conditions: ELISA of supernatant, 0 to 160 nM
Description: CD4^+ CD25^−CD62L^high cells were purified from C57BL/6 splenocytes using an EasySep Mouse Naïve CD4^+ T cell isolation kit from STEMCELL Technologies (Vancouver, Canada), and they were differentiated into Th17 cells (TGF-β, 2 ng/ml; IL-6, 20 ng/ml; Anti-IFN-γ, 10 μg/ml; Anti-IL-4, 10 μg/ml, BioLegend, San Diego, CA) in the presence of plate-bound anti-CD3 (5 μg/ml, BioLegend, San Diego, CA) and anti-CD28 (2 μg/ml, BioLegend, San Diego, CA). The cells were harvested and processed for cytokine analysis at the RNA or protein level using real-time qPCR, flow cytometry, and ELISA on day five. […]
The intracellular cytokines by TILs or in vitro differentiated T helper cells were quantified after restimulation with PMA plus ionomycin in the presence of GolgiStop for 6 h. The total RNA was isolated using the improved TRizol-based (Sigma, Darmstadt, Germany) method for qPCR analysis, and the mRNA expression was analyzed using a StepOnePlus (Life Technologies, Carlsbad, USA) real-time PCR instrument using housekeeping gene β-actin and Gapdh internal standards. qPCR was performed using A Power SYBR Green PCR Master Mix (Accurate Biology, Hunan, China) and two-cycle amplification for 40 cycles followed by the melting curve. […]

[2] = target: T1, RORγt (Homo sapiens, UniProt P51449); assay: RORγt dual FRET assay; type: biochemical
T1 sequence (P51449 263-518 limits assumed): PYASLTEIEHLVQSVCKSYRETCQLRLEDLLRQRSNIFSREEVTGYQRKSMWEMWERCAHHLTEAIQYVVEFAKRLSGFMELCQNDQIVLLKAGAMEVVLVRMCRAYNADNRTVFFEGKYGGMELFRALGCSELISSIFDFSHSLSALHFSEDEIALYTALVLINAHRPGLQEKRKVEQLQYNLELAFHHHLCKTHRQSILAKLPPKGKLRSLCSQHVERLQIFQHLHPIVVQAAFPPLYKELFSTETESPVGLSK
T1 sequence (Q15788 676-700 partner limits assumed): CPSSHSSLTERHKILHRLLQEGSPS
Description: The assay was performed according to a previous study. The plates were incubated for 1 h at room temperature and then read on Envision in LANCE mode configured for the europeum-APC labels.

[3] = tested on: mouse Tc17 cells; assay: Mouse Th17/Tc17 differentiation dose-response (flow cytometry); type: cell-based; conditions: for pEC50: Mus musculus
[4] = Drug toxicity evaluation by histopathology (H&E staining); type: in vivo, mice; conditions: 50 mg/kg or 100 mg/kg i.p. daily for two weeks
Description: We further explored the in vivo efficacy of 8-074. First, we conducted a drug toxicity evaluation by histopathology using H&E staining. […] Given the in vivo toxicity and body weight loss during dose escalation, we determined 50 mg/kg for use in the in vivo mechanistic study. The anti-tumor effect of 8-074 was also tested in two other murine syngeneic tumor models (B16F10 and MC38, which are models of melanoma and colon adenocarcinoma, respectively).
Supplementary file 13046_2022_2289_MOESM3_ESM.pdf: Additional file 3: Fig. S3. Selectivity and safety analysis of 8-074. (a) Representative hematoxylin and eosin (H&E) staining micrograph (200 ×) of heart, liver, lung, kidney, spleen, and intestine sections from mice receiving vehicle, 50 mg/kg, or 100 mg/kg 8-074 for two weeks. Scale bar = 100 μm. Vehicle, daily administration of 50 μL DMSO by intraperitoneal injection; 50 mg/kg and 100 mg/kg, daily administration of the corresponding dose (volume less than or equal to 50 μL) by intraperitoneal injection. The cell morphology, number, and distribution in heart, liver, lung, kidney, spleen, and intestine tissues after 8-074 injection were not different from those in the vehicle group. (b and c) Effects of 8-074 on body weight in mice. Data represents the mean ± SD from biological quadruplicates. All error bars represent mean ± SD. Data are from three independent experiments.

[5] = fit of dose-response curve Fig. 1i

pEC50 [1]: 7.64
pEC50 [2]: 7.70
RORγt dual FRET %max ([2]; maximal activation): 199%
pEC50 ([3]; 8-074 0.001 to 320 nM, Th17% by flow cytometry, read-out: EC50, stimulation of mouse Tc17 cells): 7.95
pEC50 ([3]; Fig. S2b summary, read-out: mTh17): 7.95
SMILES: CCS(=O)(=O)c1ccc(CC(=O)Nc2ccc(-c3ccc(CC(C)C)c(C#N)c3)c(C(F)(F)F)c2)cc1 [8-074]
HillSlope [3, 5]: 1.006
Span [3, 5]: 111.9
histopathology, H&E staining of organs [4]: No noteworthy necrosis or other abnormality was observed
